# Results reported in ChEMBL document CHEMBL4152362, “Discovery of DS-6930, a potent selective PPARγ modulator. Part II: Lead optimization” (Bioorg Med Chem, 2018).
# pEC50: −log10 of the molar value. Activity calls are given as the source filed them. The rule behind the calls is not given here.
# What was measured:
# [1] = target: T1, Peroxisome proliferator-activated receptor gamma (Homo sapiens, UniProt P37231); assay: Agonist activity at recombinant human GAL4-DBD fused PPARgamma LBD expressed in COS7 cells after 24 hrs by luciferase reporter gene assay; format: cell-based
# T1 sequence (P37231 whole entry): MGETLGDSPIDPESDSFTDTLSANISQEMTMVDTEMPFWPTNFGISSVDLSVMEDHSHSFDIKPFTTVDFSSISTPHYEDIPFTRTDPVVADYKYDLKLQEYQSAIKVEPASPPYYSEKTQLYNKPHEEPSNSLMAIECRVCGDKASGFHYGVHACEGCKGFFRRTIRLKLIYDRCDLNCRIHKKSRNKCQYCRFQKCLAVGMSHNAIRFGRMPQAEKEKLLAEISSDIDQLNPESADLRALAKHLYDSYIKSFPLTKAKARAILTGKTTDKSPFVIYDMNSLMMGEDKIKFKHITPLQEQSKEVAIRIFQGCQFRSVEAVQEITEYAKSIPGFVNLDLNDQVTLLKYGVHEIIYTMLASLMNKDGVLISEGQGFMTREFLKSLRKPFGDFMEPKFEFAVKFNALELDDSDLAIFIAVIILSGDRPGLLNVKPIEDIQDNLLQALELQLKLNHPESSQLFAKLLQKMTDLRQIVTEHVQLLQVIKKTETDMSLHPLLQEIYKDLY
# [2] = target: T2, Peroxisome proliferator-activated receptor gamma (Homo sapiens) (UniProt P37231); assay: Agonist activity at recombinant human GAL4-DBD fused PPARgamma LBD expressed in COS7 cells at 10 uM after 24 hrs by luciferase reporter gene assay relative to rosiglitazone; format: cell-based
# T2 sequence (whole entry): T1 sequence (P37231 whole entry)
# [3] = target: T3, Peroxisome proliferator-activated receptor alpha (Homo sapiens, UniProt Q07869); assay: Agonist activity at recombinant human GAL4-DBD fused PPARalpha LBD expressed in COS7 cells after 24 hrs by luciferase reporter gene assay; format: cell-based
# T3 sequence (Q07869 whole entry): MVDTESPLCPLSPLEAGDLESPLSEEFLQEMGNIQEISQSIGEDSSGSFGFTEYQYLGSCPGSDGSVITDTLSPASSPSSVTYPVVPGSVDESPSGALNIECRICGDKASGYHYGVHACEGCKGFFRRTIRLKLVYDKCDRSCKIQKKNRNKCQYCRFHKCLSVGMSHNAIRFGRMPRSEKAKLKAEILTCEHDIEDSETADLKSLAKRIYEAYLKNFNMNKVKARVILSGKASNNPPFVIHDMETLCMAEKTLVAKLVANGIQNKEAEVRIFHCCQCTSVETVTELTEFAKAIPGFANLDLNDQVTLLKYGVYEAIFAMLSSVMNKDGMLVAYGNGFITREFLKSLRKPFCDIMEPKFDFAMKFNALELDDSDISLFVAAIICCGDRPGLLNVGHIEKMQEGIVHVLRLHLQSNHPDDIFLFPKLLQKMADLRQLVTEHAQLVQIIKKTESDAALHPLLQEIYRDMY
# [4] = target: T4, Peroxisome proliferator-activated receptor alpha (Homo sapiens) (UniProt Q07869); assay: Agonist activity at recombinant human GAL4-DBD fused PPARalpha LBD expressed in COS7 cells at 10 uM after 24 hrs by luciferase reporter gene assay relative to 2-(4-tert-Butylphenoxy)-3-[4-[2-[(4-pyridin-2-ylbenzoyl)amino]ethoxy] phenyl]propionic acid; format: cell-based
# T4 sequence (whole entry): T3 sequence (Q07869 whole entry)
# [5] = 1-octanol/PBS distribution co-efficient, log D of the compound at […] at pH 7.4 after 30 mins by HPLC-MS/MS method; format: physicochemical
# [6] = Aqueous thermodynamic solubility of the compound in pH 6.8 solution up to 4 hrs by HPLC-UV analysis; format: physicochemical; settings: read-out: Therm_solubility
# [7] = Apparent permeability of the compound after 4 hrs by PAMPA; format: ADME
# [8] = Metabolic stability in human liver microsomes after 0.5 hrs; format: ADME, microsome; settings: read-out: Stability
# [9] = target: T5, Peroxisome proliferator-activated receptor delta (Homo sapiens) (UniProt Q03181); assay: Agonist activity at PPARdelta (unknown origin) at 10 uM
# T5 sequence (whole entry): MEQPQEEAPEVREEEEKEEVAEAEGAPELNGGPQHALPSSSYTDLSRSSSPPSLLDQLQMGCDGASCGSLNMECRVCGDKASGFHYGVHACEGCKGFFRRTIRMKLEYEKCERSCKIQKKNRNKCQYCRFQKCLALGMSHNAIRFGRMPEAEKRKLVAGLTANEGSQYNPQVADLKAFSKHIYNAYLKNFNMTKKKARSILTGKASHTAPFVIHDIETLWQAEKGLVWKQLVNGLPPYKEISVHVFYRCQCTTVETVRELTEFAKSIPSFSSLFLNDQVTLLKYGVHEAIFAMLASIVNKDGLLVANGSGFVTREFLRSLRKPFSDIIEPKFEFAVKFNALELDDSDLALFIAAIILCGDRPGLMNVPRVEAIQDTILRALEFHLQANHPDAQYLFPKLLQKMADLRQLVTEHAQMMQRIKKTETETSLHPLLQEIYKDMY
SMILES,pEC50 [1],Emax [2],pEC50 [3],Emax [4],logD at 0.5 h [5],solubility thermodynamic at 4 h [6],Papp at 4 h [7],remaining at 0.5 h [8],Activity [9]
Cc1cccc(Oc2ccc3nc(COc4cccc(C(=O)O)c4)n(C)c3c2)n1,5.72,78%,< 5.00,1%,0.8,92 µg/mL,2.7 ×10⁻⁶ cm/s,100%,
Cn1c(COc2cccc(C(=O)O)c2)nc2ccc(Oc3ncccc3F)cc21,6.55,80%,< 5.00,3%,0.6,7.1 µg/mL,3.9 ×10⁻⁶ cm/s,100%,
Cc1ccc(Oc2ccc3nc(COc4cccc(C(=O)O)c4)n(C)c3n2)c(C)c1,7.00,75%,< 5.00,17%,2.3,0.9 µg/mL,28.8 ×10⁻⁶ cm/s,63%,inactive
Cc1cnc(Oc2ccc3nc(COc4cccc(C(=O)O)c4)n(C)c3c2)c(F)c1,,74%,,4%,,,,,
Cc1ccc(Oc2cc3c(cn2)nc(COc2cccc(C(=O)O)c2)n3C)cc1,6.13,80%,< 5.00,6%,1,360 µg/mL,6.8 ×10⁻⁶ cm/s,80%,inactive
Cc1ccnc(Oc2ccc3nc(COc4cccc(C(=O)O)c4)n(C)c3c2)c1,6.34,41%,< 5.00,2%,0.8,33 µg/mL,3.5 ×10⁻⁶ cm/s,,
Cn1c(COc2cccc(C(=O)O)c2)nc2ccc(Oc3ccc(F)cc3)nc21,5.97,62%,,55%,1.5,11 µg/mL,8.6 ×10⁻⁶ cm/s,78%,inactive
Cc1cc(F)cnc1Oc1ccc2nc(COc3cccc(C(=O)O)c3)n(C)c2c1,,100%,< 5.00,2%,1.1,14 µg/mL,8.3 ×10⁻⁶ cm/s,93%,
Cn1c(COc2cccc(C(=O)O)c2)nc2ccc(Oc3ccc(Cl)c(F)c3)nc21,6.57,88%,< 5.00,45%,2.2,1.7 µg/mL,25.6 ×10⁻⁶ cm/s,92%,inactive
Cn1c(COc2cccc(C(=O)O)c2)nc2ccc(Oc3ncccc3Cl)cc21,6.70,93%,< 5.00,6%,1.1,15 µg/mL,8.1 ×10⁻⁶ cm/s,99%,
Cc1ccc(C)c(Oc2ccc3nc(COc4cccc(C(=O)O)c4)n(C)c3c2)n1,6.14,117%,< 5.00,7%,1.4,85 µg/mL,11 ×10⁻⁶ cm/s,,
Cc1ccc(Oc2ccc3nc(COc4cccc(C(=O)O)c4)n(C)c3n2)cc1F,7.30,80%,,56%,2.1,5.2 µg/mL,14.8 ×10⁻⁶ cm/s,96%,inactive
Cn1c(COc2cccc(C(=O)O)c2)nc2cnc(Oc3ccc(Cl)c(F)c3)cc21,5.93,73%,< 5.00,15%,1.4,11 µg/mL,11.2 ×10⁻⁶ cm/s,98%,inactive
COC(=O)c1cccc(OCc2nc3ccc(Oc4ccccc4)nc3n2C)c1,4.91,65%,,,,,,,
Cc1cc(C)cc(Oc2ccc3nc(COc4cccc(C(=O)O)c4)n(C)c3n2)c1,7.39,83%,< 5.00,19%,2.3,0.5 µg/mL,17.4 ×10⁻⁶ cm/s,71%,inactive
Cn1c(COc2cccc(C(=O)O)c2)nc2ccc(Oc3ccc(F)cn3)cc21,6.09,87%,< 5.00,5%,0.6,79 µg/mL,4.7 ×10⁻⁶ cm/s,,
Cn1c(COc2cccc(C(=O)O)c2)nc2cnc(Oc3ccc4c(c3)OCC4)cc21,6.47,59%,< 5.00,4%,0.6,79 µg/mL,3.6 ×10⁻⁶ cm/s,100%,inactive
Cc1cccnc1Oc1ccc2nc(COc3cccc(C(=O)O)c3)n(C)c2c1,6.45,83%,< 5.00,8%,0.9,37 µg/mL,6 ×10⁻⁶ cm/s,100%,
Cl.Cl.Cn1c(COc2cccc(C(=O)O)c2)nc2ccc(Oc3ccccc3)nc21,,61%,,,1.2,160 µg/mL,,100%,inactive
Cc1ccc(Oc2ccc3nc(COc4cccc(C(=O)O)c4)n(C)c3n2)cc1C,7.05,74%,< 5.00,30%,2.2,16 µg/mL,12.4 ×10⁻⁶ cm/s,73%,inactive
Cn1c(COc2cccc(C(=O)O)c2)nc2ccc(Oc3ccccn3)cc21,5.95,74%,< 5.00,1%,0.4,62 µg/mL,2.2 ×10⁻⁶ cm/s,100%,
Cc1ccc(Oc2ccc3nc(COc4cccc(C(=O)O)c4)n(C)c3c2)nc1,6.89,42%,< 5.00,4%,0.9,31 µg/mL,4.8 ×10⁻⁶ cm/s,94%,
Cc1ccc(Oc2ccc3nc(COc4cccc(C(=O)O)c4)n(C)c3c2)nc1C,6.75,81%,< 5.00,8%,1.3,190 µg/mL,7.7 ×10⁻⁶ cm/s,100%,
Cn1c(COc2cccc(C(=O)O)c2)nc2ccc(Oc3cccc(Cl)n3)cc21,6.13,67%,< 5.00,13%,1.2,7.7 µg/mL,7.6 ×10⁻⁶ cm/s,98%,
Cn1c(COc2cccc(C(=O)O)c2)nc2ccc(Oc3cc(Cl)ccn3)cc21,6.21,93%,< 5.00,11%,1.2,11 µg/mL,10.3 ×10⁻⁶ cm/s,,
